Results published in ChEMBL document CHEMBL3885861, “Open TG-GATES”.

Organism: Rattus norvegicus
Assay: Open TG-GATES - Regimen: Daily Repeat
Assay type: toxicity, organism-based, Sprague-Dawley
Design: regimen Daily Repeat, gender Male, age 6 weeks
Conditions: in vivo, po, 0 mg/kg, route gavage, dose level Control; for APTT / Bas / Eos / Fbg / Hb / Ht / Lym / MCH / MCV / Mono / Neu / PT / Plat / RBC / Ret / WBC / MCHC: tissue Blood; for KIDNEY_L / KIDNEY_R / KIDNEY_TOTAL: tissue Kidney; for LIVER: tissue Liver; for ALP / ALT / AST / CRE / Ca / Cl / DBIL / GLC / IP / K / LDH / Na / PL / RALB / TBIL / TC / TG / TP / gamma-GTP / BUN: tissue Plasma

Q: For CCOc1ccc(NC(C)=O)cc1 [PHENACETIN], which TERMINAL_BW (72 h, time 3 day) is on record?
A: 242.4 g

Q: And the APTT (72 h, time 3 day)?
A: 16.7 s

Q: And the Bas (72 h, time 3 day)?
A: 0%

Q: What about the Eos (72 h, time 3 day) of the same molecule?
A: 1%

Q: And the Fbg (72 h, time 3 day)?
A: 299.2 mg/dL

Q: What about the Hb (72 h, time 3 day) of the same molecule?
A: 13.2 g/dL

Q: What about the Ht (72 h, time 3 day) of the same molecule?
A: 39.8%

Q: What about the Lym (72 h, time 3 day) of the same molecule?
A: 71.2%

Q: What about the MCH (72 h, time 3 day) of the same molecule?
A: 21.1 pg

Q: And the MCV (72 h, time 3 day)?
A: 63.4 fL

Q: And the Mono (72 h, time 3 day)?
A: 2.8%

Q: What about the Neu (72 h, time 3 day) of the same molecule?
A: 24.4%

Q: What about the PT (72 h, time 3 day) of the same molecule?
A: 13.2 s

Q: What about the Plat (72 h, time 3 day) of the same molecule?
A: 121.2 x10_4/uL

Q: What about the RBC (72 h, time 3 day) of the same molecule?
A: 628.2 x10_4/ul

Q: What about the Ret (72 h, time 3 day) of the same molecule?
A: 6.6%

Q: And the WBC (72 h, time 3 day)?
A: 85.4 x10_2/uL

Q: What about the KIDNEY_L (72 h, time 3 day) of the same molecule?
A: 1 g

Q: And the KIDNEY_R (72 h, time 3 day)?
A: 1 g

Q: What about the KIDNEY_TOTAL (72 h, time 3 day) of the same molecule?
A: 2 g

Q: What about the LIVER (72 h, time 3 day) of the same molecule?
A: 11.5 g

Q: And the ALP (72 h, time 3 day)?
A: 2120 IU/L

Q: And the ALT (72 h, time 3 day)?
A: 37.8 IU/L

Q: What about the AST (72 h, time 3 day) of the same molecule?
A: 67.2 IU/L

Q: What about the CRE (72 h, time 3 day) of the same molecule?
A: 0.2 mg/dL

Q: What about the Ca (72 h, time 3 day) of the same molecule?
A: 11.1 mg/dL

Q: And the Cl (72 h, time 3 day)?
A: 105.6 meq/L

Q: What about the DBIL (72 h, time 3 day) of the same molecule?
A: 0.004 mg/dL

Q: What about the GLC (72 h, time 3 day) of the same molecule?
A: 176.6 mg/dL

Q: What about the IP (72 h, time 3 day) of the same molecule?
A: 7.2 mg/dL

Q: And the K (72 h, time 3 day)?
A: 4.2 meq/L

Q: What about the LDH (72 h, time 3 day) of the same molecule?
A: 118.6 IU/L

Q: What about the Na (72 h, time 3 day) of the same molecule?
A: 143.8 meq/L

Q: And the PL (72 h, time 3 day)?
A: 171 mg/dL

Q: What about the RALB (72 h, time 3 day) of the same molecule?
A: 2.6 g/dL

Q: And the TBIL (72 h, time 3 day)?
A: 0.04 mg/dL

Q: And the TC (72 h, time 3 day)?
A: 85.8 mg/dL

Q: What about the TG (72 h, time 3 day) of the same molecule?
A: 102.4 mg/dL

Q: What about the TP (72 h, time 3 day) of the same molecule?
A: 5.7 g/dL

Q: What about the gamma-GTP (72 h, time 3 day) of the same molecule?
A: 1 IU/L

Q: And the TERMINAL_BW ([…], time 7 day)?
A: 272.4 g

Q: And the TERMINAL_BW ([…], time 14 day)?
A: 332.8 g

Q: What about the TERMINAL_BW ([…], time 28 day) of the same molecule?
A: 424.6 g

Q: What about the APTT ([…], time 7 day) of the same molecule?
A: 17.7 s

Q: And the Bas ([…], time 7 day)?
A: 0%

Q: What about the Eos ([…], time 7 day) of the same molecule?
A: 1.4%

Q: What about the Fbg ([…], time 7 day) of the same molecule?
A: 300.2 mg/dL

Q: And the Hb ([…], time 7 day)?
A: 13.9 g/dL

Q: And the Ht ([…], time 7 day)?
A: 41.1%

Q: And the Lym ([…], time 7 day)?
A: 78.6%

Q: What about the MCH ([…], time 7 day) of the same molecule?
A: 21.2 pg

Q: What about the MCHC ([…], time 7 day) of the same molecule?
A: 33.8%

Q: What about the MCV ([…], time 7 day) of the same molecule?
A: 62.6 fL

Q: What about the Mono ([…], time 7 day) of the same molecule?
A: 2.6%

Q: What about the PT ([…], time 7 day) of the same molecule?
A: 13.5 s

Q: And the Plat ([…], time 7 day)?
A: 118.8 x10_4/uL

Q: And the RBC ([…], time 7 day)?
A: 656.2 x10_4/ul

Q: And the Ret ([…], time 7 day)?
A: 5.4%

Q: What about the WBC ([…], time 7 day) of the same molecule?
A: 93.4 x10_2/uL

Q: What about the APTT ([…], time 14 day) of the same molecule?
A: 17.5 s

Q: What about the Bas ([…], time 14 day) of the same molecule?
A: 0%

Q: And the Eos ([…], time 14 day)?
A: 1.4%

Q: What about the Fbg ([…], time 14 day) of the same molecule?
A: 320.2 mg/dL

Q: And the Hb ([…], time 14 day)?
A: 14.3 g/dL

Q: And the Ht ([…], time 14 day)?
A: 42.1%

Q: What about the Lym ([…], time 14 day) of the same molecule?
A: 75%

Q: And the MCH ([…], time 14 day)?
A: 19.9 pg

Q: And the MCHC ([…], time 14 day)?
A: 34%

Q: And the MCV ([…], time 14 day)?
A: 58.6 fL

Q: And the Mono ([…], time 14 day)?
A: 2.6%

Q: And the Neu ([…], time 14 day)?
A: 20.6%

Q: What about the PT ([…], time 14 day) of the same molecule?
A: 13.3 s

Q: And the Plat ([…], time 14 day)?
A: 117.7 x10_4/uL

Q: What about the RBC ([…], time 14 day) of the same molecule?
A: 720.4 x10_4/ul

Q: And the Ret ([…], time 14 day)?
A: 4.1%

Q: What about the WBC ([…], time 14 day) of the same molecule?
A: 108.4 x10_2/uL

Q: What about the APTT ([…], time 28 day) of the same molecule?
A: 23 s

Q: What about the Bas ([…], time 28 day) of the same molecule?
A: 0%

Q: What about the Eos ([…], time 28 day) of the same molecule?
A: 1.4%

Q: And the Fbg ([…], time 28 day)?
A: 276 mg/dL

Q: And the Hb ([…], time 28 day)?
A: 15 g/dL

Q: And the Ht ([…], time 28 day)?
A: 43.5%

Q: What about the Lym ([…], time 28 day) of the same molecule?
A: 73.2%

Q: What about the MCH ([…], time 28 day) of the same molecule?
A: 19.2 pg

Q: And the MCV ([…], time 28 day)?
A: 55.6 fL

Q: And the Mono ([…], time 28 day)?
A: 2.6%

Q: What about the Neu ([…], time 28 day) of the same molecule?
A: 22.2%

Q: And the PT ([…], time 28 day)?
A: 14 s

Q: What about the Plat ([…], time 28 day) of the same molecule?
A: 114.1 x10_4/uL

Q: What about the RBC ([…], time 28 day) of the same molecule?
A: 782.6 x10_4/ul

Q: And the Ret ([…], time 28 day)?
A: 2.6%

Q: What about the WBC ([…], time 28 day) of the same molecule?
A: 109.3 x10_2/uL

Q: And the KIDNEY_L ([…], time 7 day)?
A: 1.1 g

Q: What about the KIDNEY_R ([…], time 7 day) of the same molecule?
A: 1.1 g

Q: And the KIDNEY_TOTAL ([…], time 7 day)?
A: 2.3 g

Q: What about the KIDNEY_L ([…], time 14 day) of the same molecule?
A: 1.3 g

Q: What about the KIDNEY_R ([…], time 14 day) of the same molecule?
A: 1.3 g

Q: What about the KIDNEY_TOTAL ([…], time 14 day) of the same molecule?
A: 2.7 g

Q: And the KIDNEY_L ([…], time 28 day)?
A: 1.4 g

Q: And the KIDNEY_R ([…], time 28 day)?
A: 1.4 g

Q: And the KIDNEY_TOTAL ([…], time 28 day)?
A: 2.7 g

Q: And the LIVER ([…], time 7 day)?
A: 12.1 g

Q: And the LIVER ([…], time 14 day)?
A: 13.9 g

Q: And the LIVER ([…], time 28 day)?
A: 17 g

Q: What about the ALP ([…], time 7 day) of the same molecule?
A: 1453 IU/L

Q: What about the ALT ([…], time 7 day) of the same molecule?
A: 33.4 IU/L

Q: What about the AST ([…], time 7 day) of the same molecule?
A: 65.8 IU/L

Q: What about the BUN ([…], time 7 day) of the same molecule?
A: 15 mg/dL

Q: What about the CRE ([…], time 7 day) of the same molecule?
A: 0.2 mg/dL

Q: And the Ca ([…], time 7 day)?
A: 10.9 mg/dL

Q: And the Cl ([…], time 7 day)?
A: 105 meq/L

Q: And the DBIL ([…], time 7 day)?
A: 0.004 mg/dL

Q: And the IP ([…], time 7 day)?
A: 7.1 mg/dL

Q: And the K ([…], time 7 day)?
A: 4.2 meq/L

Q: And the LDH ([…], time 7 day)?
A: 95.8 IU/L

Q: What about the PL ([…], time 7 day) of the same molecule?
A: 167.6 mg/dL

Q: What about the RALB ([…], time 7 day) of the same molecule?
A: 2.7 g/dL

Q: And the TBIL ([…], time 7 day)?
A: 0.044 mg/dL

Q: And the TC ([…], time 7 day)?
A: 84.4 mg/dL

Q: What about the TG ([…], time 7 day) of the same molecule?
A: 127.8 mg/dL

Q: And the TP ([…], time 7 day)?
A: 5.9 g/dL

Q: What about the gamma-GTP ([…], time 7 day) of the same molecule?
A: 1 IU/L

Q: And the ALP ([…], time 14 day)?
A: 1542.8 IU/L

Q: What about the ALT ([…], time 14 day) of the same molecule?
A: 36.4 IU/L

Q: And the AST ([…], time 14 day)?
A: 62.4 IU/L

Q: And the BUN ([…], time 14 day)?
A: 14.6 mg/dL

Q: And the CRE ([…], time 14 day)?
A: 0.2 mg/dL

Q: What about the Ca ([…], time 14 day) of the same molecule?
A: 10.8 mg/dL

Q: And the Cl ([…], time 14 day)?
A: 104.6 meq/L

Q: And the DBIL ([…], time 14 day)?
A: 0.024 mg/dL

Q: What about the GLC ([…], time 14 day) of the same molecule?
A: 181.4 mg/dL

Q: What about the IP ([…], time 14 day) of the same molecule?
A: 7.1 mg/dL

Q: And the K ([…], time 14 day)?
A: 4.2 meq/L

Q: What about the LDH ([…], time 14 day) of the same molecule?
A: 158.6 IU/L

Q: What about the Na ([…], time 14 day) of the same molecule?
A: 143.6 meq/L

Q: And the PL ([…], time 14 day)?
A: 152 mg/dL

Q: What about the RALB ([…], time 14 day) of the same molecule?
A: 2.7 g/dL

Q: What about the TBIL ([…], time 14 day) of the same molecule?
A: 0.062 mg/dL

Q: What about the TC ([…], time 14 day) of the same molecule?
A: 72.6 mg/dL

Q: What about the TG ([…], time 14 day) of the same molecule?
A: 129 mg/dL

Q: What about the TP ([…], time 14 day) of the same molecule?
A: 6 g/dL

Q: And the gamma-GTP ([…], time 14 day)?
A: 1.2 IU/L

Q: What about the ALP ([…], time 28 day) of the same molecule?
A: 1212.8 IU/L

Q: And the ALT ([…], time 28 day)?
A: 37 IU/L

Q: What about the AST ([…], time 28 day) of the same molecule?
A: 68.2 IU/L

Q: What about the BUN ([…], time 28 day) of the same molecule?
A: 17.2 mg/dL

Q: What about the CRE ([…], time 28 day) of the same molecule?
A: 0.3 mg/dL

Q: What about the Ca ([…], time 28 day) of the same molecule?
A: 10.7 mg/dL

Q: And the Cl ([…], time 28 day)?
A: 104.8 meq/L

Q: What about the DBIL ([…], time 28 day) of the same molecule?
A: 0.02 mg/dL

Q: And the GLC ([…], time 28 day)?
A: 185.2 mg/dL

Q: What about the IP ([…], time 28 day) of the same molecule?
A: 6 mg/dL

Q: What about the K ([…], time 28 day) of the same molecule?
A: 4 meq/L

Q: And the LDH ([…], time 28 day)?
A: 76.6 IU/L

Q: And the Na ([…], time 28 day)?
A: 144.8 meq/L

Q: And the PL ([…], time 28 day)?
A: 149 mg/dL

Q: And the RALB ([…], time 28 day)?
A: 2.9 g/dL

Q: What about the TBIL ([…], time 28 day) of the same molecule?
A: 0.048 mg/dL
